What was measured:
Carbonic anhydrase 6 = Carbonic anhydrase 6 (Homo sapiens, UniProt P23280)
Carbonic anhydrase 14 = Carbonic anhydrase 14 (Homo sapiens, UniProt Q9ULX7)
Carbonic anhydrase 9 = Carbonic anhydrase 9 (Homo sapiens, UniProt Q16790)
Carbonic anhydrase 13 = Carbonic anhydrase 13 (Mus musculus, UniProt Q9D6N1)
[1] = molecular target: Carbonic anhydrase 5B, mitochondrial (Homo sapiens, UniProt Q9Y2D0)
Carbonic anhydrase 7 = Carbonic anhydrase 7 (Homo sapiens, UniProt P43166)
[2] = molecular target: Carbonic anhydrase 5A, mitochondrial (Homo sapiens, UniProt P35218)
Carbonic anhydrase 4 = Carbonic anhydrase 4 (Homo sapiens, UniProt P22748)
Carbonic anhydrase 2 = Carbonic anhydrase 2 (Homo sapiens, UniProt P00918)
Carbonic anhydrase 3 = Carbonic anhydrase 3 (Homo sapiens, UniProt P07451)
Carbonic anhydrase 3, sequence (P07451 whole entry): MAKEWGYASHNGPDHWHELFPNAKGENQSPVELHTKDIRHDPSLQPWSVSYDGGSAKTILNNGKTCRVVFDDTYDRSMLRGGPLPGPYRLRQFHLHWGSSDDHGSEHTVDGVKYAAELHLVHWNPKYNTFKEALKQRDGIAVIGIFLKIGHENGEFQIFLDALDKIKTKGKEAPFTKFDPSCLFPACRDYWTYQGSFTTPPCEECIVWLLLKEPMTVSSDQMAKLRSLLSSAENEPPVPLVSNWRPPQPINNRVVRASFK

Carbonic anhydrase 6, sequence (P23280 whole entry): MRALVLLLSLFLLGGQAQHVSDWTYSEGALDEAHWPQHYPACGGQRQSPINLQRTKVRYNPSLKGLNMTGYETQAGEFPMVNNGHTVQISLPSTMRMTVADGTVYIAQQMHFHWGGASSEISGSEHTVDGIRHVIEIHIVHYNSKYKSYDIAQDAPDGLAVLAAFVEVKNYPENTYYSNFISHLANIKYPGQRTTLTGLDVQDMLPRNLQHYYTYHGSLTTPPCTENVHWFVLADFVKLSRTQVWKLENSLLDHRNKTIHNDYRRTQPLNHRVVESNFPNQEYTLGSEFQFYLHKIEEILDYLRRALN
Carbonic anhydrase 13, sequence (Q9D6N1 whole entry): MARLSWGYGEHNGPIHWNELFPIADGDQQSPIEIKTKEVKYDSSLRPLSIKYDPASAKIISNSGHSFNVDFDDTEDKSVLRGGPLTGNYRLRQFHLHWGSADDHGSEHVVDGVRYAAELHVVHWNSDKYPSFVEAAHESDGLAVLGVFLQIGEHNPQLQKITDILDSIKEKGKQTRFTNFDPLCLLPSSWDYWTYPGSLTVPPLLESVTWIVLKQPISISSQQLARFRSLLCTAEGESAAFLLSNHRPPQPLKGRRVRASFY
Carbonic anhydrase 14, sequence (Q9ULX7 whole entry): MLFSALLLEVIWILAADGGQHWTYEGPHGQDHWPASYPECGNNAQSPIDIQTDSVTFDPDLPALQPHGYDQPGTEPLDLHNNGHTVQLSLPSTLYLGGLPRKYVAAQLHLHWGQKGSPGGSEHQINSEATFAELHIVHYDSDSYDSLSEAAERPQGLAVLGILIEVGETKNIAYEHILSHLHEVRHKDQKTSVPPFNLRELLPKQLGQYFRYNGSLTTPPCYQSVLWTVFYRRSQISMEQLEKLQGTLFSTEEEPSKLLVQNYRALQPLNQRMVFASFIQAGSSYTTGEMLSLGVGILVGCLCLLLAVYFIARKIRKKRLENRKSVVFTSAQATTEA
Carbonic anhydrase 5A, mitochondrial, sequence (P35218 whole entry): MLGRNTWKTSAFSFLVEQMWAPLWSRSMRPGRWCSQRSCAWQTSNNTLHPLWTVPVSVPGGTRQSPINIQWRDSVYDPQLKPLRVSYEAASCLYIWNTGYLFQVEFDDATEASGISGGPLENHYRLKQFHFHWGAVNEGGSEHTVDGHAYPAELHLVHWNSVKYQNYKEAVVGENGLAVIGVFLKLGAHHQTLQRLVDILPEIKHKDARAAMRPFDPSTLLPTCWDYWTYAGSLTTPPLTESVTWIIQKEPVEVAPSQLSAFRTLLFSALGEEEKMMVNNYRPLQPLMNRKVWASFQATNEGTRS
Carbonic anhydrase 7, sequence (P43166 whole entry): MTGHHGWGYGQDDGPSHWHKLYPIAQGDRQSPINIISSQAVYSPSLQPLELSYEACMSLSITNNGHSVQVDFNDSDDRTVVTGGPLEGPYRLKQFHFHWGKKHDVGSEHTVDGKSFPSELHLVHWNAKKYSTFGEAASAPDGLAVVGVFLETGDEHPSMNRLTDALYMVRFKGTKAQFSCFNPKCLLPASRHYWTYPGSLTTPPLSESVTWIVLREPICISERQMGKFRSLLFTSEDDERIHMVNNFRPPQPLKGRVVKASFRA
Carbonic anhydrase 4, sequence (P22748 whole entry): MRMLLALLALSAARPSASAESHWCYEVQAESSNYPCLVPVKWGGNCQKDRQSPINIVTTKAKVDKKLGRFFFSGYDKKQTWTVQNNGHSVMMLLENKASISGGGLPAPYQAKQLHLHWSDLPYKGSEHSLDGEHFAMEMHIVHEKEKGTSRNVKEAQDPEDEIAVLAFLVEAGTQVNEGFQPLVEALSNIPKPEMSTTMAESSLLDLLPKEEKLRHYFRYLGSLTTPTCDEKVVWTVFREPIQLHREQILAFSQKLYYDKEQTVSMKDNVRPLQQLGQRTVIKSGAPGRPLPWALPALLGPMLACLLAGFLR
Carbonic anhydrase 5B, mitochondrial, sequence (Q9Y2D0 whole entry): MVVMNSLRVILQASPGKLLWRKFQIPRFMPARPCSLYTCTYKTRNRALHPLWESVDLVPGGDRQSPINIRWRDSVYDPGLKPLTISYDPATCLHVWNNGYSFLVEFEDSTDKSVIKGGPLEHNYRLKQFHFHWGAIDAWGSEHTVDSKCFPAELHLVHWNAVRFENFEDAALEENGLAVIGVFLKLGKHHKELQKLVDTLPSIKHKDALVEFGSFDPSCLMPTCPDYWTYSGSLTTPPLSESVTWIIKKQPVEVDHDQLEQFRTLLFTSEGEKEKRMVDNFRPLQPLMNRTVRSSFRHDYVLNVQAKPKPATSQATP

Compound NS(=O)(=O)c1cc(C2(O)NC(=O)c3ccccc32)ccc1Cl (configuration not stated) [CHLORTHALIDONE] has a Ki (Carbonic anhydrase 6) of 1.35 µM, a Ki (Carbonic anhydrase 14) of 4.13 µM and a Ki (Carbonic anhydrase 9) of 0.023 µM. It also gave a Ki (Carbonic anhydrase 13) of 0.015 µM, a Ki [1] of 0.009 µM and a Ki (Carbonic anhydrase 7) of 0.0028 µM. It also gave a Ki [2] of 0.917 µM, a Ki (Carbonic anhydrase 4) of 0.196 µM and a Ki (Carbonic anhydrase 2) of 0.138 µM. The Ki (Carbonic anhydrase 3) was 11 µM.

Work on CC1Cc2ccccc2N1NC(=O)c1ccc(Cl)c(S(N)(=O)=O)c1 (configuration not stated) [INDAPAMIDE] yielded a Ki (Carbonic anhydrase 3) of 230 µM.

For NS(=O)(=O)c1cc(C(=O)O)c(NCc2ccco2)cc1Cl [FUROSEMIDE], the Ki (Carbonic anhydrase 3) was 3200 µM.

— ChEMBL document CHEMBL1143325 (Bioorg Med Chem, 2009)
